{
  "source": "ChEMBL document CHEMBL1130038",
  "about": "“1,2-Diarylpyrroles as potent and selective inhibitors of cyclooxygenase-2” (J Med Chem, 1997)",
  "key": {"[1]": {"target": "T1, Prostaglandin G/H synthase 1 (Homo sapiens, UniProt P23219)", "T1 sequence (P23219 whole entry)": "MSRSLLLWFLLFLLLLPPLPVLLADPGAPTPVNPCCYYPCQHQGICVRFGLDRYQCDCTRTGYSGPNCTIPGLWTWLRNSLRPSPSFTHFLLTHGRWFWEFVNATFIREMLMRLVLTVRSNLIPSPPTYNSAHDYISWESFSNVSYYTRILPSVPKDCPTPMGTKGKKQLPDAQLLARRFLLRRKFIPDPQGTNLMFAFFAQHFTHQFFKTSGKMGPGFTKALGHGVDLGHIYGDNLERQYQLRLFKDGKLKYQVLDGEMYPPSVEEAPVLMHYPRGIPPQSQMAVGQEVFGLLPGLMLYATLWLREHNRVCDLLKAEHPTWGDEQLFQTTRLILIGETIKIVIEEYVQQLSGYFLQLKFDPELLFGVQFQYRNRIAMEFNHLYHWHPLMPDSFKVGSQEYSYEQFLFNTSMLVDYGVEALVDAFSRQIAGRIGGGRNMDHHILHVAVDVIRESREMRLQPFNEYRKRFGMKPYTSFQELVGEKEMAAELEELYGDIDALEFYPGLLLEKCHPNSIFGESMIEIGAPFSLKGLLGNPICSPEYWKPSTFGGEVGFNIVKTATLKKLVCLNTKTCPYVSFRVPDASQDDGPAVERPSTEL", "description": "In vitro inhibitory activity against human prostaglandin G/H synthase 1"}, "[2]": {"target": "T2, Prostaglandin G/H synthase 2 (Homo sapiens, UniProt P35354)", "T2 sequence (P35354 whole entry)": "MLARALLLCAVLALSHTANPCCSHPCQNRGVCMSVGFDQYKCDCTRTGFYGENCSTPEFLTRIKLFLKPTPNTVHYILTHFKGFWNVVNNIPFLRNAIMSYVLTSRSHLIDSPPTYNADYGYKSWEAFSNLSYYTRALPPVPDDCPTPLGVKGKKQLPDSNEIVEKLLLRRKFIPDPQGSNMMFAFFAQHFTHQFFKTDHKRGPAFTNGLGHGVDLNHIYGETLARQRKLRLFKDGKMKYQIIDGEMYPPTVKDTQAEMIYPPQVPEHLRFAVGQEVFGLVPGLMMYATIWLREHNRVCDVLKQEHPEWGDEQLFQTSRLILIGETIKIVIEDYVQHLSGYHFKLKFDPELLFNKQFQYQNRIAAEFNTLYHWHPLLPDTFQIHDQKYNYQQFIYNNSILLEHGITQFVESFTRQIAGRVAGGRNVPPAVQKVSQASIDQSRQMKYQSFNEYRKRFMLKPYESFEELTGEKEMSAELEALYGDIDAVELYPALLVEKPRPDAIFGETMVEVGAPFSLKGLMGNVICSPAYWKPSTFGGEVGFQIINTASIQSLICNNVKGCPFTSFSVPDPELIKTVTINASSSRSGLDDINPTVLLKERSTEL", "description": "In vitro inhibitory activity against human Prostaglandin G/H synthase 2; NA indicates inactive"}, "[3]": {"target": "T1, Prostaglandin G/H synthase 1", "remark": "listed apart in the source", "description": "In vitro inhibitory activity against human Prostaglandin G/H synthase 1; NA indicates inactive"}, "Rattus norvegicus [4]": {"species": "Rattus norvegicus", "assay": "animal or person", "conditions": "po, read-out: Inhibition; call rule not given here"}, "Homo sapiens [5]": {"species": "Homo sapiens", "assay": "tissue or blood", "description": "Inhibition of TXB2 production in the human whole blood."}, "Homo sapiens [6]": {"species": "Homo sapiens", "assay": "tissue or blood", "remark": "listed apart in the source", "description": "Inhibition of LPS-induced PGE-2 production in the human whole blood."}, "[7]": {"target": "T1, Prostaglandin G/H synthase 1", "remark": "listed apart in the source"}, "[8]": {"target": "T2, Prostaglandin G/H synthase 2", "remark": "listed apart in the source"}, "Rattus norvegicus [9]": {"species": "Rattus norvegicus", "assay": "animal or person", "conditions": "po, read-out: Inhibition", "remark": "listed apart in the source"}, "Homo sapiens [10]": {"species": "Homo sapiens", "assay": "tissue or blood", "remark": "listed apart in the source"}, "Homo sapiens [11]": {"species": "Homo sapiens", "assay": "tissue or blood", "remark": "listed apart in the source", "description": "Ability to inhibit LPS-induced PGE-2 production in human whole blood"}, "[12]": {"target": "T1, Prostaglandin G/H synthase 1", "assay_type": "functional, cell-based, HL-60", "description": "In vitro inhibitory activity against Prostaglandin G/H synthase 1 in retinoic acid stimulated HL-60 cells"}},
  "data": [
    {"smiles": "CS(=O)(=O)c1cccc(-n2cccc2-c2ccc(F)cc2)c1", "values": [
      {"measurement": "IC50", "setting": "[1]", "value": "> 100", "unit": "µM"}
    ]},
    {"smiles": "COc1ccc(-c2ccc(C)n2-c2ccc(C(C)=O)cc2)cc1", "values": [
      {"measurement": "IC50", "setting": "[2]", "value": "Not Active"},
      {"measurement": "IC50", "setting": "[3]", "value": "Not Active"}
    ]},
    {"smiles": "CCc1ccc(-c2ccc(S(C)(=O)=O)cc2)n1-c1ccc(F)cc1", "values": [
      {"measurement": "IC50", "setting": "[1]", "value": "> 100", "unit": "µM"}
    ]},
    {"smiles": "Cc1ccc(-c2ccc(S(C)(=O)=O)cc2)n1-c1ccc(F)c(F)c1", "values": [
      {"measurement": "inhibition in vivo at 10 mg/kg", "setting": "Rattus norvegicus [4]", "value": 17, "unit": "%"}
    ]},
    {"smiles": "Cc1ccc(-c2ccc(F)cc2)n1-c1ccc([S+](C)[O-])cc1", "note": "(stereo not given)", "values": [
      {"measurement": "IC50", "setting": "[2]", "value": "Not Active"},
      {"measurement": "IC50", "setting": "[3]", "value": "Not Active"}
    ]},
    {"smiles": "CCS(=O)(=O)c1ccc(-n2cccc2-c2ccc(F)cc2)cc1", "values": [
      {"measurement": "IC50", "setting": "[1]", "value": "> 100", "unit": "µM"}
    ]},
    {"smiles": "CN(C)S(=O)(=O)c1ccc(-n2c(CCC(=O)O)ccc2-c2ccc(F)cc2)cc1", "values": [
      {"measurement": "IC50", "setting": "Homo sapiens [5]", "value": "> 50", "unit": "µM"},
      {"measurement": "IC50", "setting": "Homo sapiens [6]", "value": 4.4, "unit": "µM"}
    ]},
    {"smiles": "CS(=O)(=O)c1ccc(-c2ccc(C(F)(F)F)n2-c2ccc(F)cc2)cc1", "values": [
      {"measurement": "IC50", "setting": "[1]", "value": "> 100", "unit": "µM"}
    ]},
    {"smiles": "CCN(CC)OC(=O)c1ccc(-n2c(C)ccc2-c2ccc(F)cc2)cc1", "values": [
      {"measurement": "IC50", "setting": "[7]", "value": "Active"},
      {"measurement": "IC50", "setting": "[8]", "value": "Active"}
    ]},
    {"smiles": "Cc1ccc(-c2ccc(S(C)(=O)=O)cc2)n1-c1ccccc1", "values": [
      {"measurement": "inhibition in vivo at 10 mg/kg", "setting": "Rattus norvegicus [4]", "value": 21, "unit": "%"}
    ]},
    {"smiles": "NS(=O)(=O)c1ccc(-n2cccc2-c2ccc(F)cc2)cc1", "values": [
      {"measurement": "inhibition in vivo at 10 mg/kg", "setting": "Rattus norvegicus [4]", "value": 30, "unit": "%"}
    ]},
    {"smiles": "Cc1ccc(-c2ccc(S(C)(=O)=O)cc2)n1C1CCCCC1", "values": [
      {"measurement": "IC50", "setting": "[1]", "value": "> 100", "unit": "µM"}
    ]},
    {"smiles": "Cc1ccc(-c2ccc(F)cc2)n1-c1ccc(S(C)(=O)=O)cc1", "values": [
      {"measurement": "IC50", "setting": "[1]", "value": "> 100", "unit": "µM"}
    ]},
    {"smiles": "Cc1ccc(-c2ccc(S(C)(=O)=O)cc2)n1-c1ccc(C(F)(F)F)cc1", "values": [
      {"measurement": "inhibition in vivo at 10 mg/kg", "setting": "Rattus norvegicus [4]", "value": 31, "unit": "%"}
    ]},
    {"smiles": "Cc1ccc(-c2ccc(S(C)(=O)=O)cc2)n1C(C)C", "values": [
      {"measurement": "IC50", "setting": "[1]", "value": "> 100", "unit": "µM"}
    ]},
    {"smiles": "CS(=O)(=O)c1ccc(-n2cccc2-c2ccc(F)cc2)cc1Cl", "values": [
      {"measurement": "IC50", "setting": "[1]", "value": "> 100", "unit": "µM"}
    ]},
    {"smiles": "Cc1ccc(-c2ccc(S(C)(=O)=O)cc2)[nH]1", "values": [
      {"measurement": "IC50", "setting": "[1]", "value": "> 100", "unit": "µM"}
    ]},
    {"smiles": "Cc1c(COc2cccc(Cl)c2)cc(-c2ccc(S(C)(=O)=O)cc2)n1-c1ccc(F)cc1", "values": [
      {"measurement": "IC50", "setting": "[1]", "value": "> 100", "unit": "µM"}
    ]},
    {"smiles": "CC(=O)c1ccc(-n2c(C)ccc2-c2ccc(F)cc2)cc1", "values": [
      {"measurement": "IC50", "setting": "[2]", "value": "Not Active"},
      {"measurement": "IC50", "setting": "[3]", "value": "Not Active"}
    ]},
    {"smiles": "Cc1c(C(O)C(F)(F)F)cc(-c2ccc(S(C)(=O)=O)cc2)n1-c1ccc(F)cc1", "note": "(stereo not given)", "values": [
      {"measurement": "inhibition in vivo at 20 mg/kg", "setting": "Rattus norvegicus [9]", "value": 15, "unit": "%"}
    ]},
    {"smiles": "CS(=O)(=O)c1ccc(-c2cccn2-c2ccc(F)cc2)cc1", "values": [
      {"measurement": "IC50", "setting": "[1]", "value": "> 100", "unit": "µM"}
    ]},
    {"smiles": "Cc1c(CN(C)C)cc(-c2ccc(S(C)(=O)=O)cc2)n1-c1ccc(F)cc1", "values": [
      {"measurement": "IC50", "setting": "[1]", "value": "> 100", "unit": "µM"}
    ]},
    {"smiles": "CS(=O)(=O)c1ccc(-n2cccc2-c2ccc(F)cc2)cc1", "values": [
      {"measurement": "inhibition in vivo at 10 mg/kg", "setting": "Rattus norvegicus [4]", "value": 42, "unit": "%"}
    ]},
    {"smiles": "CC(=O)c1cc(-c2ccc(S(C)(=O)=O)cc2)n(-c2ccc(F)cc2)c1C", "values": [
      {"measurement": "inhibition in vivo at 10 mg/kg", "setting": "Rattus norvegicus [4]", "value": 13, "unit": "%"}
    ]},
    {"smiles": "Cc1c(COc2ccc(Cl)cc2)cc(-c2ccc(S(C)(=O)=O)cc2)n1-c1ccc(F)cc1", "values": [
      {"measurement": "IC50", "setting": "[1]", "value": "> 100", "unit": "µM"}
    ]},
    {"smiles": "Cc1ccc(-n2c(C)ccc2-c2ccc(S(C)(=O)=O)cc2)cc1", "values": [
      {"measurement": "inhibition in vivo at 10 mg/kg", "setting": "Rattus norvegicus [4]", "value": 25, "unit": "%"}
    ]},
    {"smiles": "Cc1c(S(=O)(=O)C(F)(F)F)cc(-c2ccc(S(C)(=O)=O)cc2)n1-c1ccc(F)cc1", "values": [
      {"measurement": "inhibition in vivo at 20 mg/kg", "setting": "Rattus norvegicus [9]", "value": 30, "unit": "%"},
      {"measurement": "IC50", "setting": "[1]", "value": "> 100", "unit": "µM"}
    ]},
    {"smiles": "COc1ccc(-c2ccc(CCC(=O)O)n2-c2ccc(C(C)=O)cc2)cc1", "values": [
      {"measurement": "IC50", "setting": "Homo sapiens [10]", "value": 0.3, "unit": "µM"},
      {"measurement": "IC50", "setting": "Homo sapiens [11]", "value": 1.5, "unit": "µM"},
      {"measurement": "IC50", "setting": "[12]", "value": 1, "unit": "µM"},
      {"measurement": "IC50", "setting": "[1]", "value": 25, "unit": "µM"}
    ]},
    {"smiles": "CCCCn1c(C)ccc1-c1ccc(S(C)(=O)=O)cc1", "values": [
      {"measurement": "IC50", "setting": "[1]", "value": "> 100", "unit": "µM"},
      {"measurement": "inhibition in vivo at 10 mg/kg", "setting": "Rattus norvegicus [4]", "value": 1, "unit": "%"}
    ]},
    {"smiles": "CNS(=O)(=O)c1ccc(-n2cccc2-c2ccc(F)cc2)cc1", "values": [
      {"measurement": "IC50", "setting": "[1]", "value": "> 100", "unit": "µM"}
    ]},
    {"smiles": "COC(=O)c1ccc(-n2c(C)ccc2-c2ccc(F)cc2)cc1", "values": [
      {"measurement": "IC50", "setting": "[2]", "value": "Not Active"},
      {"measurement": "IC50", "setting": "[3]", "value": "Not Active"}
    ]},
    {"smiles": "O=S(=O)(c1ccccc1)c1ccc(-n2cccc2-c2ccc(F)cc2)cc1", "values": [
      {"measurement": "IC50", "setting": "[1]", "value": "> 100", "unit": "µM"}
    ]},
    {"smiles": "Cc1ccc(-c2ccc(S(C)(=O)=O)cc2)n1-c1ccc(F)cc1", "values": [
      {"measurement": "IC50", "setting": "[1]", "value": "> 100", "unit": "µM"},
      {"measurement": "inhibition in vivo at 10 mg/kg", "setting": "Rattus norvegicus [4]", "value": 25, "unit": "%"}
    ]},
    {"smiles": "CS(=O)(=O)c1ccc(-c2ccc(CCC(=O)O)n2-c2ccc(F)cc2)cc1", "values": [
      {"measurement": "IC50", "setting": "[1]", "value": "> 100", "unit": "µM"}
    ]},
    {"smiles": "Cc1c(Br)cc(-c2ccc(S(C)(=O)=O)cc2)n1-c1ccc(F)cc1", "values": [
      {"measurement": "inhibition in vivo at 10 mg/kg", "setting": "Rattus norvegicus [4]", "value": 34, "unit": "%"}
    ]},
    {"smiles": "Cc1ccc(-c2ccc(S(C)(=O)=O)cc2)n1Cc1ccc(F)cc1", "values": [
      {"measurement": "IC50", "setting": "[1]", "value": "> 100", "unit": "µM"}
    ]},
    {"smiles": "Cc1c(C(Oc2cccc(Cl)c2)C(F)(F)F)cc(-c2ccc(S(C)(=O)=O)cc2)n1-c1ccc(F)cc1", "note": "(stereo not given)", "values": [
      {"measurement": "IC50", "setting": "[1]", "value": "> 100", "unit": "µM"}
    ]},
    {"smiles": "CN(C)S(=O)(=O)c1ccc(-n2cccc2-c2ccc(F)cc2)cc1", "values": [
      {"measurement": "IC50", "setting": "[1]", "value": "> 100", "unit": "µM"}
    ]}
  ]
}
